For four compounds, MIC, IC50 and Activity results are on record in ChEMBL document CHEMBL3045812, “Synthesis of fatty acid Schiff base esters as potential antimicrobial and chemotherapeutic agents” (Med Chem Res, 2013).

By MIC is commonly meant the least concentration at which growth counts as inhibited. As a reminder, the IC50 is the concentration at which inhibition is half-maximal. Read a low IC50 as greater potency in that assay.

In one experiment the test system is Nakaseomyces glabratus. The experiment can be described thus: Antifungal activity against Candida glabrata MTCC 3019 after 24 hr by microtiter broth dilution method. The experiment is classed as functional. The following applies: MTCC 3019, 24 h. Background: In broth dilution the organism is exposed to a series of concentrations in liquid medium.
Experiment [1] relates to Candida albicans. Description: Antifungal activity against Candida albicans MTCC 854 after 24 hr by microtiter broth dilution method. The experiment is classed as functional. As to conditions: MTCC 854, 24 h.
The test system of another experiment is [Candida] aaseri. Description: Antifungal activity against Candida aaseri MTCC 1962 after 24 hr by microtiter broth dilution method. Format: functional. The following applies: Yamadazyma aaseri, MTCC 1962, 24 h.
The test system of experiment [2] is Candida albicans. The experiment can be described thus: Antifungal activity against Candida albicans MTCC 3018 after 24 hr by microtiter broth dilution method. The following applies: MTCC 3018, 24 h. Format: functional.
For experiment [3], the system named is Candida albicans. The experiment can be described thus: Antifungal activity against Candida albicans MTCC 183 after 24 hr by microtiter broth dilution method. As to conditions: MTCC 183, 24 h. Format: functional.
Experiment [4] has as its system Candida albicans. The experiment can be described thus: Antifungal activity against Candida albicans MTCC 227 after 24 hr by microtiter broth dilution method. The experiment is classed as functional. As to conditions: MTCC 227, 24 h.
Experiment [5] relates to Candida albicans. Description: Antifungal activity against Candida albicans MTCC 3958 after 24 hr by microtiter broth dilution method. Format: functional. As to conditions: MTCC 3958, 24 h.
In a further experiment the test system is Pichia kudriavzevii. Description: Antifungal activity against Pichia kudriavzevii MTCC 3020 after 24 hr by microtiter broth dilution method. As to conditions: MTCC 3020, 24 h. Format: functional.
The next experiment concerns Pichia sporocuriosa. The experiment can be described thus: Antifungal activity against Issatchenkia hanoiensis MTCC 4755 after 24 hr by microtiter broth dilution method. Format: functional. As to conditions: MTCC 4755, 24 h.
In experiment [6] the test system is Candida albicans. The experiment can be described thus: Antifungal activity against Candida albicans MTCC 3017 after 24 hr by microtiter broth dilution method. The experiment is classed as functional.
For experiment [7], the system named is Candida albicans. Description: Antifungal activity against Candida albicans MTCC 1637 after 24 hr by microtiter broth dilution method. The experiment is classed as functional. The following applies: MTCC 1637, 24 h.
The next experiment relates to Candida parapsilosis. The experiment can be described thus: Antifungal activity against Candida parapsilosis MTCC 1744 after 24 hr by microtiter broth dilution method. The experiment is classed as functional. As to conditions: Lodderomyces parapsilosis, MTCC 1744, 24 h.
In experiment [8] the test system is Candida albicans. Description: Antifungal activity against Candida albicans MTCC 7315 after 24 hr by microtiter broth dilution method. The experiment is classed as functional. As to conditions: MTCC 7315, 24 h.
The next experiment relates to MDA-MB-231. The experiment can be described thus: Cytotoxicity against Homo sapiens (human) MDA-MB-231 cells by tetrazolium-reduction assay. The experiment is classed as functional, cell-based.
Experiment [9] relates to Staphylococcus aureus. Description: Antibacterial activity against Staphylococcus aureus MTCC 96 after 24 hr by microtiter broth dilution method. The experiment is classed as functional. The following applies: MTCC 96, 24 h.
A further experiment deals with Pseudomonas aeruginosa. Description: Antibacterial activity against Pseudomonas aeruginosa MTCC 2453 after 24 hr by microtiter broth dilution method. As to conditions: MTCC 2453, 24 h. The experiment is classed as functional.
For a further experiment, the system named is Bacillus subtilis. Description: Antibacterial activity against Bacillus subtilis MTCC 121 after 24 hr by microtiter broth dilution method. The experiment is classed as functional.
The test system of experiment [10] is Staphylococcus aureus. The experiment can be described thus: Antibacterial activity against Staphylococcus aureus MLS16 MTCC 2940 after 24 hr by microtiter broth dilution method. The experiment is classed as functional. The following applies: MLS16 MTCC 2940, 24 h.
The next experiment deals with Micrococcus luteus. Description: Antibacterial activity against Micrococcus luteus MTCC 2470 at 1.4 to 300 ug/ml after 24 hr by microtiter broth dilution method. Format: functional, organism-based.
Another experiment concerns A549. Description: Cytotoxicity against Homo sapiens (human) A549 cells by tetrazolium-reduction assay. Format: functional, cell-based.
Another experiment has as its system Raoultella planticola. The experiment can be described thus: Antibacterial activity against Raoultella planticola MTCC 530 at 1.4 to 300 ug/ml after 24 hr by microtiter broth dilution method. Format: functional, organism-based.
Another experiment deals with Escherichia coli. Description: Antibacterial activity against Escherichia coli MTCC 739 at 1.4 to 300 ug/ml after 24 hr by microtiter broth dilution method. Format: functional, organism-based.
A further experiment relates to N2a. The experiment can be described thus: Cytotoxicity against Mus musculus (mouse) Neuro2a cells by tetrazolium-reduction assay. The experiment is classed as functional, cell-based.
Another experiment has as its system HepG2. The experiment can be described thus: Cytotoxicity against Homo sapiens (human) HepG2 cells by tetrazolium-reduction assay. The experiment is classed as functional, cell-based.
A further experiment relates to HeLa. The experiment can be described thus: Cytotoxicity against Homo sapiens (human) HeLa cells by tetrazolium-reduction assay. The experiment is classed as functional, cell-based.

Structures are written as SMILES. ≈ marks a conversion by molar mass, not a printed value. Calls of active or inactive are those of the source. No cut-off for these calls is given here.

Take `OC(Cn1cncn1)(Cn1cncn1)c1ccc(F)cc1F` [FLUCONAZOLE]: the MIC was found to be 64 µg/mL (≈ 209 µM) with Nakaseomyces glabratus; 32 µg/mL (≈ 104 µM) against Candida albicans [1]; 64 µg/mL (≈ 209 µM) in [Candida] aaseri; 32 µg/mL (≈ 104 µM) in the experiment on Candida albicans [2]; 32 µg/mL (≈ 104 µM) with Candida albicans [3]; 32 µg/mL (≈ 104 µM) against Candida albicans [4]. Further, the MIC with Candida albicans [5] is 64 µg/mL (≈ 209 µM); in the experiment on Pichia kudriavzevii it was 128 µg/mL (≈ 418 µM); in the experiment with Pichia sporocuriosa, 64 µg/mL (≈ 209 µM); against Candida albicans [6] (MTCC 3017, 24 h) it was 64 µg/mL (≈ 209 µM); in the experiment on Candida albicans [7] it was 64 µg/mL (≈ 209 µM); with Candida parapsilosis it was 16 µg/mL (≈ 52.2 µM). The same compound displayed an MIC with Candida albicans [8] of 32 µg/mL (≈ 104 µM).
As for `COc1cccc2c1C(=O)c1c(O)c3c(c(O)c1C2=O)C[C@@](O)(C(=O)CO)C[C@@H]3O[C@H]1C[C@H](N)[C@H](O)[C@H](C)O1` [DOXORUBICIN], the IC50 in the experiment with MDA-MB-231 is under 1000 nM.
Take `NC[C@@H]1O[C@H](O[C@H]2[C@@H](O)[C@H](O[C@@H]3[C@@H](O)[C@H](N)C[C@H](N)[C@H]3O[C@H]3O[C@H](CN)[C@@H](O)[C@H](O)[C@H]3N)O[C@@H]2CO)[C@H](N)[C@@H](O)[C@@H]1O` [FRAMYCETIN]: the MIC is 18.8 µg/mL (≈ 30.5 µM) in the experiment on Staphylococcus aureus [9]; 18.8 µg/mL (≈ 30.5 µM) against Pseudomonas aeruginosa; 18.8 µg/mL (≈ 30.5 µM) in the experiment with Bacillus subtilis (MTCC 121, 24 h); 18.8 µg/mL (≈ 30.5 µM) against Staphylococcus aureus [10].
Consider `CCCCCCCCCC(=O)Oc1ccc(/C=N/Cc2cccnc2)cc1`, for which the outcome with Micrococcus luteus, with A549, in the experiment with Raoultella planticola, in the experiment on Escherichia coli, with N2a and in the experiment with HepG2 was inactive. Also, the result with HeLa was inactive. Further, the MIC against Nakaseomyces glabratus was 150 µg/mL (≈ 409 µM); against Staphylococcus aureus [9], 37.5 µg/mL (≈ 102 µM); in the experiment on Candida albicans [1], 300 µg/mL (≈ 819 µM); in the experiment with Pseudomonas aeruginosa, 75 µg/mL (≈ 205 µM); in [Candida] aaseri, 75 µg/mL (≈ 205 µM); in the experiment on Candida albicans [2] it was 75 µg/mL (≈ 205 µM). For the same compound, the MIC amounted to 300 µg/mL (≈ 819 µM) in the experiment on Candida albicans [3]; 300 µg/mL (≈ 819 µM) against Candida albicans [4]; 300 µg/mL (≈ 819 µM) against Candida albicans [5]; 150 µg/mL (≈ 409 µM) in the experiment with Pichia kudriavzevii; 75 µg/mL (≈ 205 µM) against Pichia sporocuriosa; 300 µg/mL (≈ 819 µM) in the experiment on Candida albicans [7]. Moreover, the MIC against Candida parapsilosis stood at 150 µg/mL (≈ 409 µM); against Staphylococcus aureus [10], 300 µg/mL (≈ 819 µM); against Candida albicans [8], 300 µg/mL (≈ 819 µM). In addition, the MIC result in the experiment on Candida albicans [6] and in the experiment with Bacillus subtilis was “inactive” each time.
